Where “and” joins values, the source holds several entries; their conditions need not be identical. Identical values can stand only once. Blank lines part the entries; values can stand above or below the molecule they belong to.
Experiments:
[1] = Selectivity index, ratio of CC50 for human HSF cells to MIC for Bacillus subtilis 168; type: toxicity
[2] = Selectivity index, ratio of CC50 for human HSF cells to MIC for Staphylococcus epidermidis; type: toxicity; conditions: for selectivity ratio: HSF cells
[3] = Selectivity index, ratio of CC50 for human HSF cells to MIC for Staphylococcus aureus ATCC 29213; type: toxicity
Bacillus subtilis = test: Bactericidal activity against Bacillus subtilis 168 assessed as reduction in bacterial growth incubated for 24 hrs followed by replating on MH broth and further incubated for 24 hrs by CLSI broth microdilution method; type: functional; conditions: Bacillus subtilis, 168, 24 h
[4] = system: Staphylococcus epidermidis; test: Bactericidal activity against Staphylococcus epidermidis assessed as reduction in bacterial growth incubated for 24 hrs followed by replating on MH broth and further incubated for 24 hrs by CLSI broth microdilution method; type: functional
Staphylococcus aureus [5] = test: Bactericidal activity against Staphylococcus aureus ATCC 29213 assessed as reduction in bacterial growth incubated for 24 hrs followed by replating on MH broth and further incubated for 24 hrs by CLSI broth microdilution method; type: functional; conditions: time 48 hrs
Escherichia coli [6] = test: Antibacterial activity against Escherichia coli ATCC 25922 assessed as reduction in bacterial growth incubated for 24 hrs by CLSI broth microdilution method; type: functional
Pseudomonas aeruginosa [7] = test: Antibacterial activity against Pseudomonas aeruginosa ATCC 27853 assessed as reduction in bacterial growth incubated for 24 hrs by CLSI broth microdilution method; type: functional; conditions: Pseudomonas aeruginosa, ATCC 27853, 24 h, read-out: MIC
Staphylococcus aureus [8] = test: Antibacterial activity against Staphylococcus aureus ATCC 29213 by CLSI broth microdilution method; type: functional
Staphylococcus aureus [9] = test: Bactericidal activity against Staphylococcus aureus ATCC 29213; type: functional
Escherichia coli [10] = test: Bactericidal activity against Escherichia coli ATCC 25922; type: functional
Staphylococcus aureus [11] = test: Antibacterial activity against Staphylococcus aureus ATCC 6538 incubated for 24 hrs by CLSI broth microdilution method; type: functional
Klebsiella pneumoniae [12] = test: Antibacterial activity against Klebsiella pneumoniae ATCC 10031 assessed as reduction in bacterial growth incubated for 24 hrs by CLSI broth microdilution method; type: functional
Pseudomonas aeruginosa [13] = test: Antibacterial activity against Pseudomonas aeruginosa ATCC 9027 assessed as reduction in bacterial growth incubated for 24 hrs by CLSI broth microdilution method; type: functional
Proteus sp. = test: Antibacterial activity against […] resistant Proteus sp. clinical isolate 17 assessed as reduction in bacterial growth incubated for 24 hrs by CLSI broth microdilution method; type: functional; conditions: Proteus sp. (in: enterobacteria)
Klebsiella sp. [14] = test: Antibacterial activity against […] resistant Klebsiella sp. clinical isolate 12 assessed as reduction in bacterial growth incubated for 24 hrs by CLSI broth microdilution method; type: functional
Klebsiella sp. [15] = test: Antibacterial activity against […] resistant Klebsiella sp. clinical isolate 11 assessed as reduction in bacterial growth incubated for 24 hrs by CLSI broth microdilution method; type: functional
Pseudomonas = test: Antibacterial activity against methicillin- resistant Pseudomonas spp. clinical isolate 6 assessed as reduction in bacterial growth incubated for 24 hrs by CLSI broth microdilution method; type: functional
Acinetobacter [16] = test: Antibacterial activity against […] resistant Acinetobacter spp. clinical isolate 5 assessed as reduction in bacterial growth incubated for 24 hrs by CLSI broth microdilution method; type: functional
Acinetobacter [17] = test: Antibacterial activity against […] resistant Acinetobacter spp. clinical isolate 3 assessed as reduction in bacterial growth incubated for 24 hrs by CLSI broth microdilution method; type: functional
Acinetobacter [18] = test: Antibacterial activity against […] resistant Acinetobacter spp. clinical isolate 1 assessed as reduction in bacterial growth incubated for 24 hrs by CLSI broth microdilution method; type: functional
[19] = Antibacterial activity against […] resistant Moraxella sp.829 clinical isolate assessed as reduction in bacterial growth incubated for 24 hrs by CLSI broth microdilution method; type: functional; conditions: Moraxella catarrhalis
[20] = Antibacterial activity against […] resistant Moraxella sp.765 clinical isolate assessed as reduction in bacterial growth incubated for 24 hrs by CLSI broth microdilution method; type: functional; conditions: Moraxella catarrhalis
[21] = Antibacterial activity against […] resistant Moraxella sp.764 clinical isolate assessed as reduction in bacterial growth incubated for 24 hrs by CLSI broth microdilution method; type: functional; conditions: Moraxella catarrhalis
Staphylococcus aureus [22] = test: Antibacterial activity against methicillin- resistant Staphylococcus aureus 25 clinical isolate assessed as reduction in bacterial growth incubated for 24 hrs by CLSI broth microdilution method; type: functional
Staphylococcus aureus [23] = test: Antibacterial activity against methicillin- resistant Staphylococcus aureus 2020 clinical isolate assessed as reduction in bacterial growth incubated for 24 hrs by CLSI broth microdilution method; type: functional
[24] = system: Staphylococcus intermedius; test: Antibacterial activity against methicillin- resistant Staphylococcus intermedius 1143 clinical isolate assessed as reduction in bacterial growth incubated for 24 hrs by CLSI broth microdilution method; type: functional
Staphylococcus aureus [25] = test: Antibacterial activity against methicillin- resistant Staphylococcus aureus 983 clinical isolate assessed as reduction in bacterial growth incubated for 24 hrs by CLSI broth microdilution method; type: functional
Staphylococcus aureus [26] = test: Antibacterial activity against methicillin- resistant Staphylococcus aureus 967 clinical isolate assessed as reduction in bacterial growth incubated for 24 hrs by CLSI broth microdilution method; type: functional
[27] = system: Staphylococcus haemolyticus; test: Antibacterial activity against methicillin- resistant Staphylococcus haemolyticus 837 assessed as reduction in bacterial growth incubated for 24 hrs by CLSI broth microdilution method; type: functional
Klebsiella pneumoniae [28] = test: Bactericidal activity against Klebsiella pneumoniae ATCC 1813 assessed as reduction in bacterial growth incubated for 24 hrs followed by replating on MH broth and further incubated for 24 hrs by CLSI broth microdilution method; type: functional
Escherichia coli [29] = test: Bactericidal activity against Escherichia coli ATCC 25922 assessed as reduction in bacterial growth incubated for 24 hrs followed by replating on MH broth and further incubated for 24 hrs by CLSI broth microdilution method; type: functional
Staphylococcus aureus [30] = test: Antibacterial activity against Staphylococcus aureus ATCC 29213 assessed as reduction in bacterial growth incubated for 24 hrs by CLSI broth microdilution method; type: functional
[31] = system: Staphylococcus epidermidis; test: Antibacterial activity against Staphylococcus epidermidis assessed as reduction in bacterial growth incubated for 24 hrs by CLSI broth microdilution method; type: functional
Klebsiella pneumoniae [32] = test: Antibacterial activity against Klebsiella pneumoniae ATCC 1813 assessed as reduction in bacterial growth incubated for 24 hrs by CLSI broth microdilution method; type: functional
[33] = Staphylococcus epidermidis, read-out: MBC
[34] = Staphylococcus aureus, ATCC 29213, read-out: MBC
[35] = Escherichia coli, ATCC 25922, 24 h, read-out: MIC

Compound: CCCCCCCCOc1c2cc(C[N+](C)(C)CCO)cc1Cc1cc(C[N+](C)(C)CCO)cc(c1OCCCCCCCC)Cc1cc(C[N+](C)(C)CCO)cc(c1OCCCCCCCC)Cc1cc(C[N+](C)(C)CCO)cc(c1OCCCCCCCC)C2.[Cl-].[Cl-].[Cl-].[Cl-]
MIC (Staphylococcus aureus [8]): 16 µg/mL
MBC (Staphylococcus aureus [9]): 16 µg/mL
MBC (Escherichia coli [10]): 256 µg/mL
MIC (Staphylococcus aureus [11]): > 1000 µg/mL
MIC (Escherichia coli [6]; [35]): 32 µg/mL
MIC (Klebsiella pneumoniae [12]): > 1000 µg/mL
MIC (Pseudomonas aeruginosa [13]): 500 µg/mL

Compound: CCCCCCCCOc1c2cc(C[n+]3ccn(C)c3)cc1Cc1cc(C[n+]3ccn(C)c3)cc(c1OCCCCCCCC)Cc1cc(C[n+]3ccn(C)c3)cc(c1OCCCCCCCC)Cc1cc(C[n+]3ccn(C)c3)cc(c1OCCCCCCCC)C2.[Cl-].[Cl-].[Cl-].[Cl-]
MIC (Staphylococcus aureus [11]): > 1000 µg/mL
MIC (Escherichia coli [6]; [35]): 1000 µg/mL
MIC (Klebsiella pneumoniae [12]): > 1000 µg/mL
MIC (Pseudomonas aeruginosa [13]): 500 µg/mL

Compound: CC(C)(C)c1cc2c(OCC(=O)NCCC[N+](C)(C)Cc3ccccc3)c(c1)Sc1cc(C(C)(C)C)cc(c1OCC(=O)NCCC[N+](C)(C)Cc1ccccc1)Sc1cc(C(C)(C)C)cc(c1OCC(=O)NCCC[N+](C)(C)Cc1ccccc1)Sc1cc(C(C)(C)C)cc(c1OCC(=O)NCCC[N+](C)(C)Cc1ccccc1)S2.[Cl-].[Cl-].[Cl-].[Cl-]
MIC (Proteus sp.): > 64 µg/mL
MIC (Klebsiella sp. [14]): 64 µg/mL
MIC (Klebsiella sp. [15]): > 64 µg/mL
MIC (Pseudomonas): 64 µg/mL
MIC (Acinetobacter [16]): 64 µg/mL
MIC (Acinetobacter [17]): 64 µg/mL
MIC (Acinetobacter [18]): 64 µg/mL
MIC [19]: 64 µg/mL
MIC [20]: 64 µg/mL
MIC [21]: 64 µg/mL
MIC (Staphylococcus aureus [22]): 16 µg/mL
MIC (Staphylococcus aureus [23]): 64 µg/mL
MIC [24]: 16 µg/mL
MIC (Staphylococcus aureus [25]): 64 µg/mL
MIC (Staphylococcus aureus [26]): 64 µg/mL
MIC [27]: 64 µg/mL
MBC (Klebsiella pneumoniae [28]): 32 µg/mL
MBC (Escherichia coli [29]): 64 µg/mL
MBC [4]: 16 µg/mL
MBC [4, 33]: 32 µg/mL
MBC (Staphylococcus aureus [5]; [34]): 64 µg/mL
MBC (Staphylococcus aureus [5]): 64 µg/mL
MIC (Escherichia coli [6]; 24 h): 32 µg/mL
MIC (Escherichia coli [6]; [35]): > 64 µg/mL
MIC (Staphylococcus aureus [30]): 4 µg/mL
MIC (Staphylococcus aureus [30]; Staphylococcus aureus, ATCC 29213, 24 h, read-out: MIC): 4 µg/mL
MIC [31]: 2 µg/mL
MIC ([31]; Staphylococcus epidermidis, read-out: MIC): 4 µg/mL
MIC (Klebsiella pneumoniae [32]; 24 h): >64 µg/mL
MIC (Klebsiella pneumoniae [32]; Klebsiella pneumoniae, ATCC 1813, 24 h, read-out: MIC): 32 µg/mL
MIC (Pseudomonas aeruginosa [7]): > 64 µg/mL

Second part, led by results:

MIC (Escherichia coli [6]; 24 h): 64 µg/mL
MIC (Escherichia coli [6]; [35]): > 64 µg/mL
MIC (Pseudomonas aeruginosa [7]): > 64 µg/mL
Compound: CCCC[N+](C)(C)CCCNC(=O)COc1c2cc(C(C)(C)C)cc1Sc1cc(C(C)(C)C)cc(c1OCC(=O)NCCC[N+](C)(C)CCCC)Sc1cc(C(C)(C)C)cc(c1OCC(=O)NCCC[N+](C)(C)CCCC)Sc1cc(C(C)(C)C)cc(c1OCC(=O)NCCC[N+](C)(C)CCCC)S2.[Cl-].[Cl-].[Cl-].[Cl-]
Ratio [1]: 23 and 9
Ratio [2]: 19
selectivity ratio [2]: 11
Ratio [3]: 19
selectivity ratio ([3]; HSF cells): 11
MBC (Bacillus subtilis): 16 µg/mL
MBC [4, 33]: 8 µg/mL
MBC (Staphylococcus aureus [5]; [34]): 16 µg/mL

MIC (Escherichia coli [6]; [35]): > 64 µg/mL
MIC (Pseudomonas aeruginosa [7]): > 64 µg/mL
Compound: CC(C)(C)c1cc2c(OCC(=O)NCCC[N+](C)(C)C)c(c1)Sc1cc(C(C)(C)C)cc(c1OCC(=O)NCCC[N+](C)(C)C)Sc1cc(C(C)(C)C)cc(c1OCC(=O)NCCC[N+](C)(C)C)Sc1cc(C(C)(C)C)cc(c1OCC(=O)NCCC[N+](C)(C)C)S2.[Cl-].[Cl-].[Cl-].[Cl-]
Ratio [1]: > 16 and 43
Ratio [2]: 11
selectivity ratio [2]: > 16
MBC (Bacillus subtilis): 8 µg/mL
MBC [4, 33]: 32 µg/mL
MBC (Staphylococcus aureus [5]; [34]): > 64 µg/mL
